# Reference: patent US5266600A (priority 1992, dated 1993)
# Entries after “also recorded” stand apart in the source; their conditions may differ. Where two headings read alike, the source gives them in different places.
# How the values were obtained:
# [1] = molecular target: T1, HIV envelope protein gp120 / T cells (UniProt P01730+P04578); assay: Binding of HIV envelope protein gp120 to T cells
# T1 construct: CD4 native on cells
# [2] = Cytotoxicity in CEM-SS cells; type: cell-based; conditions: human
# HIV-1 IIIb = assay: Acute infection of HIV-1 IIIb in CEM-SS cells; type: cell-based
# [3] = Cytotoxicity in virus-uninfected MT-4 cells; type: cell-based; conditions: human; virus-uninfected MT-4 cells
# [4] = test system: HTLV-III (human T cell lymphotropic virus type III); assay: Inhibition of HTLV-III infection in MT-4 cells (MTT); type: cell-based; conditions: for EC50: HTLV-III infected MT-4 cells, 5 days, MTT
# Method: Human T cell lymphotropic virus type III (HTLV-III)/lymphadenopathy-associated virus is the etiologic agent of the acquired immune deficiency syndrome (AIDS) and AIDS-related complex. […] (Nakashima, H. et al., Antimicrobial Agents & Chemotherapy, 30, pp 933-937, 1986).
# An HTLV type I-Carrying cell line, MT-4, was maintained in RPMI 1640 medium supplemented with 10% fetal calf serum, 100 IU of penicillin G per ml and 100 μg of streptomycin per ml at 37° C. in a CO2 incubator. HTLV-III8 was obtained from the supernatant of the Molt-4/HTLV-III8 culture. The titer of this virus preparation was 3.0×10^5 PFU/ml. MT-4 cells were infected with 0.01 MOI of HTLV-III8. The infected cells resuspended in fresh medium were mixed with a test sample solution (or medium itself for control) to give 2.5×10^4 cells in a 200 μl volume and incubated at 37° C. for 5 days. The surviving cells were measured by the MTT (3-(4,5-dimethylthiazol-2-yl)-2,5-diphenyltetrazolium bromide) method (R. Pauwels et al., J. Virol Methods, 20, pp 309-321, 1988). [formula]
# Fifty percent effective concentration (EC50) was obtained from the inhibition rates.
# tubulin (3XMTP) [5] = assay: Electron microscopic observation of microtubule assembly in 3XMTP; type: biochemical, calf; conditions: 100 μM
# [6] = test system: tubulin bundling in human colon cells; assay: Immunofluorescence study of tubulin bundling in human colon cells; type: cell-based
# [7] = test system: syncytium formation between HIV gp-120 expressing BSC-1 cells and HeLa-T4 (CD4) cells; assay: Syncytium formation inhibition assay; type: cell-based; conditions: for Syncytium inhibitory activity ID50: 3-5 hours, 37° C.
# Solubility = type: physicochemical
# Description: BU-4641V was isolated as a white amorphous powder. […] It gave positive responses to iodine vapor, sulfuric acid and ferric chloride tests, but negative responses to Rydon-Smith, Dragendorff and anthrone-sulfuric acid tests on silica gel TLC plate.
# tubulin (3XMTP) [8] = assay: Tubulin polymerization assay using thrice-cycled microtubule protein (3XMTP), spectrophotometric; type: biochemical, calf
# Method: Briefly, tubulin was purified from calf brain extracts by three cycles of polymerization at 35° C. in the presence of 1 mM GTP+2.5 mM ATP, and depolymerization at 4° C. in PM buffer pH 6.6 (0.1 M PIPES, […]) containing various concentrations of glycerol as described previously (Williams R. C. and J. C. Lee 1982 Methods in Enzymology 85: pp. 376-385). The tubulin polymerization assay was carried out using 3XMTP in PM buffer containing 0.4 M of glycerol in the presence of test-compound. The polymerization was quantitated by Shimadzu spectrophotometer (Model No. UV 2100U) at 350 nm. Effect of compound on the kinetics of tubulin polymerization was followed for 20 minutes using taxol as a positive control and DMSO as a negative control. Compound in PM buffer +0.4 M glycerol (no MTP) served as buffer (negative) controls.
# tubulin (3XMTP) [9] = conditions: cited from earlier work
# MT-4 cells = assay: Cytotoxicity in virus-uninfected MT-4 cells; type: cell-based; conditions: human, mt-4 cells
compound,measurement,setting,value
CC1=CCC2(C)C(=O)C(O)=C(C(C)CO)C2CC=C(C)C(O)CCC(C)=CCC1 (stereo not drawn) [BU-4641V],binding of HIV envelope protein gp120 to T cells,[1],does not affect the binding of HIV envelope protein gp120 to T cells
same,CC50,[2],84 µM
same,blocking of acute HIV-1 IIIb infection (in words),HIV-1 IIIb,only partially blocks the acute infection of HIV-1 IIIb
same,IC50,HIV-1 IIIb; acute infection of HIV-1 IIIb,10 µM
same,CC50,[3],37.8 µg/mL
same,EC50,[4],0.78 µg/mL
same,activity against HTLV-III (in words),[4]; compared with dextran sulfate,more active than dextran sulfate against HTLV-III
same,microtubule assembly by electron microscopy (in words),tubulin (3XMTP) [5],confirmed by electron microscopic observation of microtubule assembly
same,tubulin bundling around nuclei (in words),[6],induces tubulin bundling around nuclei
same,Syncytium inhibitory activity ID50,[7],0.46 µg/mL
same,syncytium inhibitory activity (in words),[7]; compared with dextran sulfate,more potent syncytium inhibitory activity; also recorded: stronger syncytium inhibitory property than that of dextran sulfate
same,solubility,Solubility,"soluble in dimethyl sulfoxide, methanol, methylene chloride, ethyl acetate and alkaline water (such as 0.1 N NaOH); also recorded: insoluble in hexane and water"
same,promotion of tubulin polymerization (in words),tubulin (3XMTP) [8],promotes tubulin polymerization in a dose dependent manner; also recorded: reversibly stimulates polymerization of purified tubulin protein; also recorded: promote tubulin polymerization
same,initial rate of tubulin polymerization (in words),tubulin (3XMTP) [8]; compared to taxol,slower initial rate
same,reversal of tubulin polymerization by CaCl2 (in words),tubulin (3XMTP) [8]; treatment with CaCl2,can be reversed by treatment with CaCl2
Nc1nc2c(ncn2[C@@H]2O[C@H](COP(=O)(O)OP(=O)(O)OP(=O)(O)O)[C@@H](O)[C@H]2O)c(=O)[nH]1 [GTP],"promotion of tubulin polymerization (in words), known",tubulin (3XMTP) [9]; GTP,known to reversibly promote tubulin polymerization; also recorded: only active on tubulin in the presence of microtubule associated proteins (MAPS)
"CC(=O)O[C@H]1C(=O)[C@@]2(C)[C@H]([C@H](OC(=O)c3ccccc3)[C@]3(O)C[C@H](OC(=O)[C@H](O)[C@@H](NC(=O)c4ccccc4)c4ccccc4)C(C)=C1C3(C)C)[C@]1(OC(C)=O)CO[C@@H]1C[C@@H]2O [Taxol, reference compound]","promotion of tubulin polymerization (in words), known",tubulin (3XMTP) [9]; taxol,promote tubulin polymerization
same,tubulin bundling around nuclei (in words),[6],induces tubulin bundling around nuclei
Dextran sulfate [reference compound],CC50,MT-4 cells,> 1000 µg/mL
same,EC50,[4],1.4 µg/mL
same,Syncytium inhibitory activity ID50,[7],12.0 µg/mL
